Laboratory results taken from patent US10501458B2, “Substituted bicyclic fused ring compounds as indoleamine-2,3-dioxygenase inhibitors” (Merck Sharp & Dohme Corp., priority 2015, dated 2019).

Key:
[1] = biological target: T1, TDO (Homo sapiens (Human), UniProt P48775); test: A172 kynurenine cell-based assay; details: A172 human glioblastoma cells, 500 μM L-tryptophan, 48 hours; for IC50: read-out: A172 Kynurenine cell based assay, pIC50 (converted)
Experimental: (§1) Exemplary compounds of the invention were prepared, and tested to determine their effect as TDO and/or IDO inhibitors. Two different assays were employed: 1. a cell-based assay for detecting the effect of test compounds on kynurenine production in two different cancer cell types. This assay utilised cancer cells which expressed either TDO or IDO and as such was used as a means of testing compound activity at these two enzymes in a cell-based context. 2. a TDO and IDO biochemical coupled assay which utilised recombinantly produced and purified TDO and IDO enzymes in combination with the enzyme formamidase. This coupled enzyme system allowed conversion of N-formylkynurenine produced by TDO or IDO activity to kynurenine which was then quantified by fluorescence following addition of Erhlich's Reagent The protocols for these are set out below.
(§2) Cell Based Assay for Detection of Kynurenine Produced by TDO and/or IDO
(§3) A172 (human glioblastoma) and SKOV3 (human ovarian adenocarcinoma) cells were seeded in a 96 well plate at 30,000 or 40,000 cells per well respectively in phenol red-free RPMI supplemented with 10% FCS, 2 mM L-glutamine and 500 μM L-tryptophan. IDO expression was induced in the SKOV3 cells by the addition of 500 ng/ml IFN-γ. Cells were incubated at 37° C. with or without the addition of test compound. After 48 hours, the cells were removed by centrifugation and Erhlich's reagent was added to the supernatant. The Erhlich's reagent was incubated for 5 minutes before the absorbance was read at 490 nm.

[2] = biological target: T2, IDO (Homo sapiens (Human), UniProt P14902); test: SKOV3 kynurenine cell-based assay (IDO induced by IFN-γ); details: SKOV3 human ovarian adenocarcinoma cells, 500 ng/ml IFN-γ, 500 μM L-tryptophan, 48 hours; for IC50: read-out: SKOV3 Kynurenine cell based assay, pIC50 (converted)
Experimental: as §1, §2, §3

[3] = biological target: T1, TDO; test: hTDO biochemical coupled assay; details: 330 μM L-tryptophan, 17 minutes at room temperature
Experimental: as §1
(§4) TDO and IDO Biochemical Coupled Assay
(§5) Recombinant human IDO or TDO was incubated in 50 mM KPO4 (pH 7.0), 0.5 mM EGTA, 0.5 mM EDTA, 0.05% Triton™ X100, 20 mM ascorbate, 10 μM methylene blue, 500 U/ml catalase, 50 μg/ml KynB (kynurenine formamidase). TDO assays were carried out in the presence of 330 μM L-tryptophan, while IDO assays had the addition of 45 μM L-tryptophan. After incubation for 17 minutes at room temperature the reactions were stopped by the addition of Erhlich's reagent and incubated at room temperature for 5 minutes before the fluorescence was read (Ex 475, Em530).

[4] = biological target: T2, IDO; test: hIDO biochemical coupled assay; details: 45 μM L-tryptophan, 17 minutes at room temperature; for IC50: read-out: hIDO biochemical assay, pIC50 (converted)
Experimental: as §1, §4, §5

T2 sequence (P14902 whole entry): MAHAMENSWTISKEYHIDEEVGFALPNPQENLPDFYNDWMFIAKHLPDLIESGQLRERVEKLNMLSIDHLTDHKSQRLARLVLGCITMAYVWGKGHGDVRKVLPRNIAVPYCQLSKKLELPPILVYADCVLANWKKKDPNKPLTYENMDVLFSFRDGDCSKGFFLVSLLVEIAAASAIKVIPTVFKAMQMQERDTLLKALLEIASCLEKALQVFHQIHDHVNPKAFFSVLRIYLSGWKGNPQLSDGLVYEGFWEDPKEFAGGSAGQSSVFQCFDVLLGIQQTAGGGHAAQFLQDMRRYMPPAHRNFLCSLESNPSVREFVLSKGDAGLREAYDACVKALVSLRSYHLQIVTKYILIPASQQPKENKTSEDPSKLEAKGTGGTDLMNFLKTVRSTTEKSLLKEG
T1 sequence (P48775 whole entry): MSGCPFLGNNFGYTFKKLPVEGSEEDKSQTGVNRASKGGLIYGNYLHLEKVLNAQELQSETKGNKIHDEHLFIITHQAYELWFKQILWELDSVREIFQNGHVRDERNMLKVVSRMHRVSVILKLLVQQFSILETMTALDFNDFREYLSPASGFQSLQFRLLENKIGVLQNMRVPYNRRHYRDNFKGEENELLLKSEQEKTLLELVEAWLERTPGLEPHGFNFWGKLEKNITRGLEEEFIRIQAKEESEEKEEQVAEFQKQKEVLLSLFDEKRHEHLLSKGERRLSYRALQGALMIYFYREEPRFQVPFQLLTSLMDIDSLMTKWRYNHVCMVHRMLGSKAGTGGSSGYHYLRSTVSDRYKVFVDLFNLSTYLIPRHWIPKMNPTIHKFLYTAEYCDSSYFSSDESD

Structure (SMILES)	A172 Kynurenine cell based assay, pIC50 [1]	SKOV3 Kynurenine cell based assay, pIC50 [2]	hTDO biochemical assay, pIC50 [3]	hIDO biochemical assay, pIC50 [4]	IC50 [1]	IC50 [2]	IC50 [4]	IC50 ([3]; read-out: hTDO biochemical assay, pIC50 (converted))
O=C(Nc1cccn2cncc12)c1ccccc1 [Compound 1001]	+/− (+/− = pIC50 <4.00)	+ (+ = pIC50 4.00-4.49)	+/− (+/− = pIC50 <4.00)	+/− (+/− = pIC50 <4.00)	–	–	–	–
CC(=O)N1CCN(c2cc(C(F)(F)F)cn3cncc23)CC1 [Compound 1002]	++ (++ = pIC50 4.50-5.49)	+ (+ = pIC50 4.00-4.49)	–	+/− (+/− = pIC50 <4.00)	–	–	–	–
CS(=O)(=O)N1CCN(c2cc(C(F)(F)F)cn3cncc23)CC1 [Compound 1003]	++ (++ = pIC50 4.50-5.49)	+ (+ = pIC50 4.00-4.49)	–	+/− (+/− = pIC50 <4.00)	–	–	–	–
CC(=O)N1CCC(c2cc(C(F)(F)F)cn3cncc23)CC1 [Compound 1004]	+ (+ = pIC50 4.00-4.49)	+/− (+/− = pIC50 <4.00)	–	+ (+ = pIC50 4.00-4.49)	–	–	–	–
CS(=O)(=O)N1CCC(c2cc(C(F)(F)F)cn3cncc23)CC1 [Compound 1005, 8-(1-(methylsulfonyl)piperidin-4-yl)-6-(trifluoromethyl)imidazo[1,5-a]pyridine]	–	–	–	–	3.24 to 31.6 µM	32.4 to 100 µM	3.24 to 31.6 µM	–
CS(=O)(=O)N1CCN(c2cc(Cl)cn3cncc23)CC1 [Compound 1006]	++ (++ = pIC50 4.50-5.49)	+ (+ = pIC50 4.00-4.49)	–	++ (++ = pIC50 4.50-5.49)	–	–	–	–
CS(=O)(=O)c1ccc(-c2cc(C(F)(F)F)cn3cncc23)cc1 [Compound 1007]	+++ (+++ = pIC50 ≥5.50)	+ (+ = pIC50 4.00-4.49)	–	+ (+ = pIC50 4.00-4.49)	–	–	–	–
OCCc1cc(C(F)(F)F)cn2cncc12 [Compound 1008]	+/− (+/− = pIC50 <4.00)	+ (+ = pIC50 4.00-4.49)	+/− (+/− = pIC50 <4.00)	+/− (+/− = pIC50 <4.00)	–	–	–	–
CS(=O)(=O)N1CCC(Nc2cc(C(F)(F)F)cn3cncc23)CC1 [Compound 1009]	+/− (+/− = pIC50 <4.00)	++ (++ = pIC50 4.50-5.49)	–	+/− (+/− = pIC50 <4.00)	–	–	–	–
CS(=O)(=O)c1ccc(-c2cc(Cl)cn3cncc23)cc1 [Compound 1010, 6-chloro-8-(4-(methylsulfonyl)phenyl)imidazo[1,5-a]pyridine]	–	–	–	–	≤ 3.16 µM	32.4 to 100 µM	3.24 to 31.6 µM	–
CS(=O)(=O)c1ccc(-c2cc(Cl)cc3cncn23)cc1 [Compound 1012]	++ (++ = pIC50 4.50-5.49)	+ (+ = pIC50 4.00-4.49)	–	++ (++ = pIC50 4.50-5.49)	–	–	–	–
CS(=O)(=O)N1CCN(c2cc(Cl)cc3cncn23)CC1 [Compound 1013]	+ (+ = pIC50 4.00-4.49)	+ (+ = pIC50 4.00-4.49)	++ (++ = pIC50 4.50-5.49)	++ (++ = pIC50 4.50-5.49)	–	–	–	–
CC1(C)CN(c2cc(C(F)(F)F)cn3cncc23)CCN1S(C)(=O)=O [Compound 1014, 8-(3,3-dimethyl-4-(methylsulfonyl)piperazin-1-yl)-6-(trifluoromethyl)imidazo[1,5-a]pyridine]	–	–	–	–	≤ 3.16 µM	≤ 3.16 µM	–	–
CS(=O)(=O)c1ccc(-c2cc(C(F)(F)F)cc3cncn23)cc1 [Compound 1015, 5-(4-(methylsulfonyl)phenyl)-7-(trifluoromethyl)imidazo[1,5-a]pyridine]	–	–	–	–	3.24 to 31.6 µM	32.4 to 100 µM	3.24 to 31.6 µM	32.4 to 100 µM
CC1(C)CN(c2cc(Cl)cn3cncc23)CCN1S(C)(=O)=O [Compound 1016]	+++ (+++ = pIC50 ≥5.50)	++ (++ = pIC50 4.50-5.49)	–	–	–	–	–	–
CS(=O)(=O)N1CCC(c2cc(C(F)(F)F)cc3cncn23)CC1 [Compound 1017]	++ (++ = pIC50 4.50-5.49)	+/− (+/− = pIC50 <4.00)	+ (+ = pIC50 4.00-4.49)	+ (+ = pIC50 4.00-4.49)	–	–	–	–

Structure (SMILES)	A172 Kynurenine cell based assay, pIC50 [1]	SKOV3 Kynurenine cell based assay, pIC50 [2]	hTDO biochemical assay, pIC50 [3]	hIDO biochemical assay, pIC50 [4]	IC50 [1]	IC50 [2]	IC50 [4]	IC50 ([3]; read-out: hTDO biochemical assay, pIC50 (converted))
CC(=O)N1CCN(c2cc(C(F)(F)F)cc3cncn23)CC1 [Compound 1018]	++ (++ = pIC50 4.50-5.49)	+ (+ = pIC50 4.00-4.49)	++ (++ = pIC50 4.50-5.49)	++ (++ = pIC50 4.50-5.49)	–	–	–	–
CS(=O)(=O)N1CCN(c2cc(C(F)(F)F)cc3cncn23)CC1 [Compound 1019]	++ (++ = pIC50 4.50-5.49)	+ (+ = pIC50 4.00-4.49)	++ (++ = pIC50 4.50-5.49)	++ (++ = pIC50 4.50-5.49)	–	–	–	–
O=C(O)N1CCC(c2cc(C(F)(F)F)cc3cncn23)CC1 [Compound 1020]	+ (+ = pIC50 4.00-4.49)	+/− (+/− = pIC50 <4.00)	++ (++ = pIC50 4.50-5.49)	+ (+ = pIC50 4.00-4.49)	–	–	–	–
CC1(C)CN(c2cc(Br)cn3cncc23)CCN1S(C)(=O)=O [Compound 1022]	+++ (+++ = pIC50 ≥5.50)	+++ (+++ = pIC50 ≥5.50)	–	–	–	–	–	–
CS(=O)(=O)Nc1ccc(C2CCN(c3cc(C(F)(F)F)cc4cncn34)CC2)cc1 [Compound 1023]	++ (++ = pIC50 4.50-5.49)	+++ (+++ = pIC50 ≥5.50)	–	–	–	–	–	–
CC(=O)Nc1ccc(C2CCN(c3cc(C(F)(F)F)cc4cncn34)CC2)cc1 [Compound 1024]	++ (++ = pIC50 4.50-5.49)	+++ (+++ = pIC50 ≥5.50)	–	–	–	–	–	–
CNC(=O)c1ccc(C2CCN(c3cc(C(F)(F)F)cc4cncn34)CC2)cc1 [Compound 1025]	++ (++ = pIC50 4.50-5.49)	+++ (+++ = pIC50 ≥5.50)	–	–	–	–	–	–
CC1(C)CN(c2cc(C(F)(F)F)cc3cncn23)CCN1S(C)(=O)=O [Compound 1026]	+++ (+++ = pIC50 ≥5.50)	+++ (+++ = pIC50 ≥5.50)	–	–	–	–	–	–
CS(=O)(=O)NC1CCN(c2cc(C(F)(F)F)cc3cncn23)CC1 [Compound 1027]	++ (++ = pIC50 4.50-5.49)	++ (++ = pIC50 4.50-5.49)	–	++ (++ = pIC50 4.50-5.49)	–	–	–	–
OC1(c2cc(C(F)(F)F)cn3cncc23)CCCCC1 [Compound 1028]	+++ (+++ = pIC50 ≥5.50)	++ (++ = pIC50 4.50-5.49)	–	++ (++ = pIC50 4.50-5.49)	–	–	–	–
CC(=O)N1CCN(c2cc(C(F)(F)F)cn3cncc23)CC1(C)C [Compound 1029]	+++ (+++ = pIC50 ≥5.50)	++ (++ = pIC50 4.50-5.49)	–	–	–	–	–	–
CS(=O)(=O)N1CCC(Nc2cc(Cl)cc3cncn23)CC1 [Compound 1030]	++ (++ = pIC50 4.50-5.49)	++ (++ = pIC50 4.50-5.49)	–	–	–	–	–	–
CC(=O)N1CCN(c2cc(Cl)cc3cncn23)CC1(C)C [Compound 1031]	+++ (+++ = pIC50 ≥5.50)	+++ (+++ = pIC50 ≥5.50)	–	–	–	–	–	–
CC1(C)CN(c2cc(Cl)cc3cncn23)CCN1S(C)(=O)=O [Compound 1032]	++ (++ = pIC50 4.50-5.49)	+++ (+++ = pIC50 ≥5.50)	–	–	–	–	–	–
CC(=O)N1CCN(c2cc(Cl)cn3cncc23)CC1(C)C [Compound 1033]	+++ (+++ = pIC50 ≥5.50)	++ (++ = pIC50 4.50-5.49)	–	–	–	–	–	–
